The term IC50 denotes the concentration that inhibits the measured activity by half. High values mean a need for much substance, low ones inhibition by little substance. As usually defined, the Kd is a measure of binding affinity in units of concentration.

SMILES strings stand for the structures. Bounds are passed on as bounds.

In one series the target is hERG (Homo sapiens, UniProt Q12809). The series is described as follows: hERG safety counterscreen. In kind it is cell-based. (The hERG channel carries a current that helps repolarise heart muscle cells.)
Sequence of hERG (Q12809 whole entry): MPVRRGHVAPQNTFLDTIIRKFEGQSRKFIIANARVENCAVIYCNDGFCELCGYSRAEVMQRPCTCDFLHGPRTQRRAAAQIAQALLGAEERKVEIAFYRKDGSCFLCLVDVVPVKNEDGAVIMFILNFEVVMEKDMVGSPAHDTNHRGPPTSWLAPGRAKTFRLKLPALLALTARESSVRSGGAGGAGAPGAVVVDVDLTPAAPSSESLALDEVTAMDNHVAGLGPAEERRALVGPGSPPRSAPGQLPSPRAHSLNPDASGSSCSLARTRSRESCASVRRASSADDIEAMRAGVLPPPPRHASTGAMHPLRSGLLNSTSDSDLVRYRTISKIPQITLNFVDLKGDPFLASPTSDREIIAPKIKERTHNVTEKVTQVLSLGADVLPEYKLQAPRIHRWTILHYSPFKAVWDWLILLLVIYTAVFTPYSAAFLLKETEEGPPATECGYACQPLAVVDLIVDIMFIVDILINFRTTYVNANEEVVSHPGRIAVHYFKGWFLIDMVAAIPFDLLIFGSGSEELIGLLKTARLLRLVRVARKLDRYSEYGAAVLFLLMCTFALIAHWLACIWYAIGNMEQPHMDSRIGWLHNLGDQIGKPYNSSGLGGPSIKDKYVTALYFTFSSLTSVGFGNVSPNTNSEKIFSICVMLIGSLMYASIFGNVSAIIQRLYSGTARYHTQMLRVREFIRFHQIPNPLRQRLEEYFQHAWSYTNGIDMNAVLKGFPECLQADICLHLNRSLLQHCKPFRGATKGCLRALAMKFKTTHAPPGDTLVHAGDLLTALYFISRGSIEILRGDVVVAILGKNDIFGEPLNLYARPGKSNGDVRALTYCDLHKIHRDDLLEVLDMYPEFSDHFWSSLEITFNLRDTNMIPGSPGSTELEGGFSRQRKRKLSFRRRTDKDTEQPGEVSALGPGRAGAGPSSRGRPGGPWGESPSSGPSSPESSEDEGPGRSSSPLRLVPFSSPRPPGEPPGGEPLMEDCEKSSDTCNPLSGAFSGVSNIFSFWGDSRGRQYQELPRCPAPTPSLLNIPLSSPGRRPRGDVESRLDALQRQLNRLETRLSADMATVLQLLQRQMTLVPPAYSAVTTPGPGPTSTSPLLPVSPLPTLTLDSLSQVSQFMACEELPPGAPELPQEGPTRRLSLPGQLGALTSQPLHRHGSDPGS
Take `c1ccc(CCNc2nc(-c3c[nH]c4ccccc34)cs2)cc1` [T2M-010]: the IC50 is > 60 µM.

The target in the next series is T1, recombinant human TREM2 protein (Homo sapiens, UniProt Q9NZC2).
T1 sequence (Q9NZC2 19-174 limits assumed): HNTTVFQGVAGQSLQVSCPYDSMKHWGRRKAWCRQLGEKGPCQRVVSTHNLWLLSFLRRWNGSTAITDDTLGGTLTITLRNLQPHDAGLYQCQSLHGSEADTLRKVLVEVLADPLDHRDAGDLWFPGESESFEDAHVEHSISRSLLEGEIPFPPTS
The series is described as follows: microscale thermophoresis. In kind it is binding. On the technique in general: In MST a laser heats a spot of the sample, and binding alters the fluorescence response.
Turning to `c1ccc(CCNc2nc(-c3c[nH]c4ccccc34)cs2)cc1` [T2M-010], the Kd was 0.83 ± 0.1 µM.
Same read-out and setting: next, `c1ccc2c(-c3csc(NC4CC4)n3)c[nH]c2c1` [T2M-003]: 1.35 ± 0.16 µM.
On the same count and under the same terms, the value for `c1ccc(Nc2nc(-c3c[nH]c4ccccc34)cs2)cc1` [T2M-002] was 50.8 ± 3.74 µM.
Still for that read-out and setting: next, `CNc1nc(-c2c[nH]c3ccccc23)cs1` [T2M-016]: 2.44 ± 0.3 µM; `c1ccc(Nc2nc(-c3c[nH]c4ccccc34)cs2)nc1` [T2K-014]: 28.9 ± 1.74 µM.

The record behind these values is doi:10.1101/2025.09.11.675743v1 (biorxiv, 2025).
